Data: patent US12590108B2, “Boracic acid compound” (Phaeno Therapeutics Co., Ltd, priority 2020, dated 2026)
Where two headings read alike, the source gives them in different places.

Assays:
[1] = system: Klebsiella pneumoniae ATCC BAA-1705; test: Mouse lung infection model, bacterial load; assay type: in vivo, CD-1 female mice; settings: endpoint 12 h
Procedure: 36 CD-1 female mice were divided into 12 cages with 3 […] in each cage. The day of infection was denoted as day 0.
Immunosuppressant cyclophosphamide at 150 mg/kg was injected intraperitoneally on day −4 and immunosuppressant cyclophosphamide at 100 mg/kg was injected intraperitoneally on day −1 to induce immunodeficient mice.
On day −1, the strain Klebsiella pneumoniae ATCC BAA-1705 was resuscitated on an MHA plate. Resuscitated colonies were picked and dissolved in sterile physiological saline to prepare a bacterial solution with a concentration of 2.75E+08 CFU/mL for lung infection by nasal drip. The initial time of infection was denoted as 0 h, and 50 μL of the bacterial solution was injected into each mouse by nasal drip at 0 h, that is, the inoculation amount was 1.38E+07 CFU/mouse. 2 h after infection, dosing was performed according to the experimental scheme. The specific experimental scheme was as follows (see Table 6): • (1) 2 h after infection: for the 1st cage of mice, at the endpoint, lung tissue was taken and placed in 10 mL of sterile physiological saline, the tissue was homogenized by a homogenizer, and the homogenate was diluted in a gradient and spotted in a plate, with two replicates for each mouse. • (2) 2 h after infection: the 2nd to 12th cages were respectively treated at 10 mL/kg by volume according to the body weight of the mice, the 2nd cage of mice were given a vehicle by intravenous injection every 2 h, and the endpoint was 12 h; the 3rd cage of mice were given 100 mg/kg of meropenem by intravenous injection every 2 h, and the endpoint was 12 h; the 4th cage of mice were given 100 mg/kg of meropenem and 20 mg/kg of QPX7728 by intravenous injection every 2 h, and the endpoint was 12 h; the 5th cage of mice were given 100 mg/kg of meropenem and 100 mg/kg of compound 15 by intravenous injection every 2 h, and the endpoint was 12 h; the 6th cage of mice were given 100 mg/kg of meropenem and 20 mg/kg of compound 15 by intravenous injection every 2 h, and the endpoint was 12 h; the 7th cage of mice were given 100 mg/kg of meropenem and 4 mg/kg of compound 15 by intravenous injection every 2 h, and the endpoint was 12 h; the 8th cage of mice were given 100 mg/kg of cefepime by intravenous injection every 2 h, and the endpoint was 12 h; the 9th cage of mice were given 100 mg/kg of cefepime and 20 mg/kg of QPX7728 by intravenous injection every 2 h, and the endpoint was 12 h; the 10th cage of mice were given 100 mg/kg of cefepime and 100 mg/kg of compound 15 by intravenous injection every 2 h, and the endpoint was 12 h: the 11th cage of mice were given 100 mg/kg of cefepime and 20 mg/kg of compound 15 by intravenous injection every 2 h, and the endpoint was 12 h; and the 12th cage of mice were given 100 mg/kg of cefepime and 4 mg/kg of compound 15 by intravenous injection every 2 h, and the endpoint was 12 h. At the endpoint, lung tissue was taken and placed in 10 mL of sterile physiological saline, the tissue was homogenized by a homogenizer, and the homogenate was diluted in a gradient and spotted in a plate, with two replicates for each mouse. The bacterial load in the lung tissue of the mice was counted, and the experiment was summarized as follows (see Table 7): […]

[2] = system: Klebsiella pneumoniae ATCC BAA-1705 (KPC-2); test: MIC shift, liquid microdilution, meropenem fixed at 4 μg/mL; assay type: cell-based; settings: K. pneumoniae ATCC BAA-1705, KPC-2
Procedure: (§1) The test compound was tested for minimum inhibitory concentration against three strains of Klebsiella pneumoniae ATCC BAA-1705 (KPC-2), ATCC BAA-2470 (NDM-1), and ARLG-1196 (CTM-1 group, SHV, NDM, TEM), and one strain of Escherichia coli ARLG-2829 (NDM-5, OXA-1). According to the requirements of the Institute of Clinical And Laboratory Standard (CLSI), the minimum inhibitory concentration (MIC) of each drug combination was determined by liquid microdilution method under the premise of fixing the concentration of meropenem at 4 μg/mL.
(§2) Preparation of compound mother plate: On the day of the experiment, the compound to be tested (the final concentration was 0.3125 to 20 μg/mL) and meropenem (the final concentration ranged from 1 to 64 μg/mL) were dissolved in a corresponding solvent (sterile ddH2O or DMSO) to form 100× mother liquors with the highest test concentration, and the compound to be tested and meropenem were then subjected to 2-fold series gradient dilution in a V-bottom 96-well plate to obtain 100× working solutions with the final concentration.
(§3) Preparation of inoculation solution: Fresh bacterial clones were picked from an overnight Mueller Hinton II Agar medium (MHA, Cat. No. 211438, BD BBLTM) plate, suspended in sterilized physiological saline, and adjusted to a concentration of 1×10^8 CFU/mL, and the suspension was further diluted to 5-10^5 CFU/mL with Cation-Adjusted Mueller Hinton II Broth (MHB, Catalog #212332, BD BBLTM).
(§4) Detection of minimum inhibitory concentration (MIC): 1 μL of the compound to be tested and the meropenem working solution were transferred to the corresponding wells to be tested in a round-bottomed 96-well plate (Catalog #3788, Corning), and 98 μL of the inoculation solution was added to the round-bottomed 96-well plate containing drugs, which was an MIC test plate; and after the plate was inverted and cultured at 37° C. for 20-24 h, the MIC value was read, and the minimum inhibitory concentration for inhibiting bacterial growth was defined as MIC.

[3] = system: Escherichia coli ARLG-2829 (NDM-5, OXA-1); test: as above; assay type: cell-based
Procedure: as §1, §2, §3, §4

[4] = system: Klebsiella pneumoniae ARLG-1196 (CTM-1 group, SHV, NDM, TEM); test: as above; assay type: cell-based
Procedure: as §1, §2, §3, §4

[5] = system: Klebsiella pneumoniae ATCC BAA-2470 (NDM-1); test: as above; assay type: cell-based; settings: K. pneumoniae ATCC BAA-2470, NDM-1
Procedure: as §1, §2, §3, §4

[6] = compound + meropenem fixed at 4 μg/mL

Row | MIC [2, 6] | MIC ([3]; compound + meropenem fixed at 4 μg/mL, E. coli ARLG-2829 (urine clinical isolate), NDM-5, OXA-1) | MIC ([4]; compound + meropenem fixed at 4 μg/mL, K. pneumoniae ARLG-1196, CTM-1 and isoforms thereof, SHV, NDM, TEM) | MIC [5, 6] | SMILES | Average CFU in mice (lung tissue) ([1]; cefepime 100 mg/kg + inhibitor 4 mg/kg i.v. q2h) | Average CFU in mice (lung tissue) ([1]; cefepime 100 mg/kg + inhibitor 20 mg/kg i.v. q2h) | Average CFU in mice (lung tissue) ([1]; cefepime 100 mg/kg + inhibitor 100 mg/kg i.v. q2h) | Average CFU in mice (lung tissue) ([1]; meropenem 100 mg/kg + inhibitor 4 mg/kg i.v. q2h) | Average CFU in mice (lung tissue) ([1]; meropenem 100 mg/kg + inhibitor 20 mg/kg i.v. q2h) | Average CFU in mice (lung tissue) ([1]; meropenem 100 mg/kg + inhibitor 100 mg/kg i.v. q2h) | Average CFU in mice (lung tissue) ([1]; antibiotic alone 100 mg/kg i.v. q2h) | MIC ([2]; Klebsiella pneumoniae, ATCCBAA1705, meropenem alone, read-out: MIC) | MIC ([3]; Escherichia coli, meropenem alone, E. coli ARLG-2829, read-out: MIC) | MIC ([4]; Klebsiella pneumoniae, meropenem alone, K. pneumoniae ARLG-1196, read-out: MIC) | MIC ([5]; Klebsiella pneumoniae, ATCCBAA2470, meropenem alone, read-out: MIC)
1 | ≤0.3125 µg/mL | 1.25 µg/mL | 0.625 µg/mL | 0.625 µg/mL | CCOc1ccc2c(c1C(=O)O)O[B-](O)(O)CO2 [Compound 15] | 2.38E+06 CFU/mouse | 3.73E+05 CFU/mouse | 1.84E+05 CFU/mouse | 6.83E+07 CFU/mouse | 6.04E+06 CFU/mouse | 7.67E+05 CFU/mouse | – | – | – | – | –
2 | – | – | – | – | C[C@@H](O)[C@H]1C(=O)N2C(C(=O)O)=C(S[C@@H]3CN[C@H](C(=O)N(C)C)C3)[C@H](C)[C@H]12 [Meropenem, meropenem, reference compound] | – | – | – | – | – | – | 2.73E+08 CFU/mouse | 32 µg/mL | > 64 µg/mL | 64 µg/mL | 64 µg/mL
